Results published in PubChem BioAssay AID1963981 (Molecular Pharmacology Branch, DTP, NCI, 2024).
pIC50: −log10 of the molar value.

Test system: 354836-022-R-J1-PDC multicell spheroid viability
Assay: Anticancer human tumor 354836-022-R-J1-PDC patient-derived head and neck squamous cell carcinoma cell line growth inhibition [PI3K]
Conditions: for pIC50: curve of first compound; for viability, T/C: stronger effect = lower value; active = viability on the fitted dose curve at most 10% of control; inactive = the rest
Summary of the method: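 Viability of mixed-cell spheroids was determined after exposure to pairwise combinations, one partner being inavolisib, alpelisib, duvelisib or copanlisib. Highest tested concentration matched clinical Cmax where known and 10 microM where not, descending in half-log steps.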

[1] = second compound 0.0316 µM, first compound 0.0316 µM
[2] = second compound 0.0316 µM, first compound 0.1 µM
[3] = second compound 0.1 µM, first compound 0.0316 µM
[4] = second compound 0.1 µM, first compound 0.1 µM
[5] = second compound 0.316 µM, first compound 0.0316 µM
[6] = second compound 0.316 µM, first compound 0.1 µM
[7] = second compound 1 µM, first compound 0.0316 µM
[8] = second compound 1 µM, first compound 0.1 µM
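Note: spheroids exposed to agents for seven days before the viability read.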

CC(C)n1nc(-c2ccc3oc(N)nc3c2)c2c(N)ncnc21 + CC(Nc1ccc2c(c1)OCCn1cc(N3C(=O)OCC3C(F)F)nc1-2)C(N)=O
active: viability, T/C [2] 9.5% | viability, T/C [4] 6.95% | viability, T/C [6] 6.64% | viability, T/C [8] 5.83%
8.12: pIC50 (second compound 0.0316 µM)
7.86: pIC50 (second compound 0.00316 µM)
inactive: viability, T/C (second compound 0.00316 µM, first compound 0.000316 µM) 99.9% | viability, T/C (second compound 0.00316 µM, first compound 0.001 µM) 77% | viability, T/C (second compound 0.00316 µM, first compound 0.00316 µM) 80.6% | viability, T/C (second compound 0.00316 µM, first compound 0.01 µM) 53.9% | viability, T/C (second compound 0.00316 µM, first compound 0.0316 µM) 35.2% | viability, T/C (second compound 0.00316 µM, first compound 0.1 µM) 12.7% | viability, T/C (second compound 0.01 µM, first compound 0.000316 µM) 104% | viability, T/C (second compound 0.01 µM, first compound 0.001 µM) 76% | viability, T/C (second compound 0.01 µM, first compound 0.00316 µM) 74.5% | viability, T/C (second compound 0.01 µM, first compound 0.01 µM) 51.3% | viability, T/C (second compound 0.01 µM, first compound 0.0316 µM) 37.8% | viability, T/C (second compound 0.01 µM, first compound 0.1 µM) 13.1% | viability, T/C (second compound 0.0316 µM, first compound 0.000316 µM) 90.2% | viability, T/C (second compound 0.0316 µM, first compound 0.001 µM) 78.8% | viability, T/C (second compound 0.0316 µM, first compound 0.00316 µM) 59.2% | viability, T/C (second compound 0.0316 µM, first compound 0.01 µM) 50.5% | viability, T/C [1] 25.9% | viability, T/C (second compound 0.1 µM, first compound 0.000316 µM) 74.1% | viability, T/C (second compound 0.1 µM, first compound 0.001 µM) 81.6% | viability, T/C (second compound 0.1 µM, first compound 0.00316 µM) 71.3% | viability, T/C (second compound 0.1 µM, first compound 0.01 µM) 49.4% | viability, T/C [3] 25.4% | viability, T/C (second compound 0.316 µM, first compound 0.000316 µM) 60.3% | viability, T/C (second compound 0.316 µM, first compound 0.001 µM) 75.7% | viability, T/C (second compound 0.316 µM, first compound 0.00316 µM) 54% | viability, T/C (second compound 0.316 µM, first compound 0.01 µM) 37.7% | viability, T/C [5] 22.2% | viability, T/C (second compound 1 µM, first compound 0.000316 µM) 57.5% | viability, T/C (second compound 1 µM, first compound 0.001 µM) 54.8% | viability, T/C (second compound 1 µM, first compound 0.00316 µM) 45.9% | viability, T/C (second compound 1 µM, first compound 0.01 µM) 34.8% | viability, T/C [7] 19.4%
8.30: pIC50 (second compound 0.316 µM)
7.97: pIC50 (second compound 0.1 µM)
7.94: pIC50 (second compound 0.01 µM)
8.73: pIC50 (second compound 1 µM)

CCCS(=O)(=O)Nc1ccc(F)c(C(=O)c2c[nH]c3ncc(-c4ccc(Cl)cc4)cc23)c1F + Cc1nc(NC(=O)N2CCCC2C(N)=O)sc1-c1ccnc(C(C)(C)C(F)(F)F)c1
5.46: pIC50 (second compound 3.16 µM)
> 7.50: pIC50 (second compound 10 µM)
5.25: pIC50 (second compound 0.1 µM)
5.22: pIC50 (second compound 0.0316 µM)
inactive: viability, T/C [1] 96.5% | viability, T/C [2] 86.5% | viability, T/C (second compound 0.0316 µM, first compound 0.316 µM) 97.5% | viability, T/C (second compound 0.0316 µM, first compound 1 µM) 99.8% | viability, T/C (second compound 0.0316 µM, first compound 3.16 µM) 76.6% | viability, T/C (second compound 0.0316 µM, first compound 10 µM) 29.8% | viability, T/C [3] 101% | viability, T/C [4] 93.8% | viability, T/C (second compound 0.1 µM, first compound 0.316 µM) 96.1% | viability, T/C (second compound 0.1 µM, first compound 1 µM) 80.5% | viability, T/C (second compound 0.1 µM, first compound 3.16 µM) 80.2% | viability, T/C (second compound 0.1 µM, first compound 10 µM) 22.8% | viability, T/C [5] 83.7% | viability, T/C [6] 79.6% | viability, T/C (second compound 0.316 µM, first compound 0.316 µM) 75.2% | viability, T/C (second compound 0.316 µM, first compound 1 µM) 80% | viability, T/C (second compound 0.316 µM, first compound 3.16 µM) 75.6% | viability, T/C (second compound 0.316 µM, first compound 10 µM) 18.7% | viability, T/C [7] 80.1% | viability, T/C [8] 76.7% | viability, T/C (second compound 1 µM, first compound 0.316 µM) 72% | viability, T/C (second compound 1 µM, first compound 1 µM) 77% | viability, T/C (second compound 1 µM, first compound 3.16 µM) 70.6% | viability, T/C (second compound 1 µM, first compound 10 µM) 18% | viability, T/C (second compound 3.16 µM, first compound 0.0316 µM) 53.5% | viability, T/C (second compound 3.16 µM, first compound 0.1 µM) 60.8% | viability, T/C (second compound 3.16 µM, first compound 0.316 µM) 63.1% | viability, T/C (second compound 3.16 µM, first compound 1 µM) 66.8% | viability, T/C (second compound 3.16 µM, first compound 3.16 µM) 50.7% | viability, T/C (second compound 3.16 µM, first compound 10 µM) 11.5% | viability, T/C (second compound 10 µM, first compound 0.0316 µM) 39.6% | viability, T/C (second compound 10 µM, first compound 0.1 µM) 35.3% | viability, T/C (second compound 10 µM, first compound 0.316 µM) 35.6% | viability, T/C (second compound 10 µM, first compound 1 µM) 39.9% | viability, T/C (second compound 10 µM, first compound 3.16 µM) 32% | viability, T/C (second compound 10 µM, first compound 10 µM) 7.04%
5.27: pIC50 (second compound 0.316 µM)
5.30: pIC50 (second compound 1 µM)
